This is an account of results in EP4559908A1, “HETEROARYL DERIVATIVE COMPOUND AND USE THEREOF” (S2CBio Inc., priority 2022, dated 2024).

The experiment has as its target T1, human ANO6 (variant 5) (Homo sapiens, UniProt Q4KMQ2).
T1 construct: expressed in transfected cells; host or cells: Fischer rat thyroid (FRT) cells
T1 sequence (Q4KMQ2 1-931 isoform Q4KMQ2-2): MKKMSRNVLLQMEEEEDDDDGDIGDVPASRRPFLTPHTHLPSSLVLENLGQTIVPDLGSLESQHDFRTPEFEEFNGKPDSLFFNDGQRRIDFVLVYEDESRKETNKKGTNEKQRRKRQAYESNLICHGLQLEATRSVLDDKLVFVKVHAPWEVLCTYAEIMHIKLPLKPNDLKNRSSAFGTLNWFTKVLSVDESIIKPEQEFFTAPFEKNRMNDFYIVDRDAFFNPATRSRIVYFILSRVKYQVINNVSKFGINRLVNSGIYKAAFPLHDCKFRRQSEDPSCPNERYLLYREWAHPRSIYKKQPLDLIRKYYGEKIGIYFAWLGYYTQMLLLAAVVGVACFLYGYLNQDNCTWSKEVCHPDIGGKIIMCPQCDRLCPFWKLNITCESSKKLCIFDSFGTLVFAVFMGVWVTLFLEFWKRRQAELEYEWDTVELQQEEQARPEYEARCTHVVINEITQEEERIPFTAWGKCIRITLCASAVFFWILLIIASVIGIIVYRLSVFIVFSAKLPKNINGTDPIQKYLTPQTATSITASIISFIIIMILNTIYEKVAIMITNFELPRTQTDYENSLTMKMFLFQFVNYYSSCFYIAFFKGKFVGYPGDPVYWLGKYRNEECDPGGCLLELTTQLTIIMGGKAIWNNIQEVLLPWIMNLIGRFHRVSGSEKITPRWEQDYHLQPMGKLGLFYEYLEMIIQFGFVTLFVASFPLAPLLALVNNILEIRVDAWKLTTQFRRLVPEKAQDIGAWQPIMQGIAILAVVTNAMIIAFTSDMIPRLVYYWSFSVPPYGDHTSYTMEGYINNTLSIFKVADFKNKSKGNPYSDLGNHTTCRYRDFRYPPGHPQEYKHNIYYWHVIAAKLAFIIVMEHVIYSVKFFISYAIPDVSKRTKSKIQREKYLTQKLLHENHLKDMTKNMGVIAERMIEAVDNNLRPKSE
Put plainly: Lact C2 assay (measuring phosphatidylserine externalization scramblase function). Type of experiment: cell-based. The following applies: FRT, FRT cells expressing human ANO6 (variant 5), ionomycin 10 µM, Lact-C2-GFP fluorescence, average of three tests; for inhibition at 1 µM: compound 1 µM, read-out: % Inhibition 1 µM; for inhibition at 0.05 µM: compound 50 nM, read-out: % Inhibition 50 nM; for inhibition at 0.1 µM: compound 100 nM. The method in brief: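 Cells were pretreated 10 min with compound (50 nM, 100 nM, 1 µM; 1% DMSO), then given 10 µM ionomycin for 10 min. Surface phosphatidylserine was stained with 500 nM Lact-C2-GFP (10 min, 37 °C), fixed and imaged. Inhibition was scaled between untreated (100%) and ionomycin-alone (0%) wells.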

In the case of `COc1cc(-c2cccnn2)ccc1Nc1cccc(-c2nc3ccccc3[nH]2)c1` [Example 210, N-(3-(1H-benzo[d]imidazol-2-yl)phenyl)-2-methoxy-4-(pyridazin-3-yl)aniline], the inhibition – broadly, the share of the control response that was lost under treatment – at 1 µM is 30 to 60%.
In the case of `c1cc(Nc2ccc(-c3ccnnc3)cc2)cc(-c2nc3ccccc3[nH]2)c1` [Example 94, 3-(1H-benzo[d]imidazol-2-yl)-N-(4-pyridazin-4-ylphenyl)aniline], the inhibition at 1 µM is over 60%.
In the case of `FC(F)(F)Oc1cc2[nH]c(-c3cccc(Nc4ccc(-c5cccnn5)cc4)c3)nc2cn1` [Example 232, N-(4-(pyridazin-3-yl)phenyl)-3-(6-(trifluoromethoxy)-1H-imidazo[4,5-c]pyridin-2-yl)aniline], the inhibition at 0.05 µM was over 60% and the inhibition at 1 µM is over 60%.
As to `FC(F)(F)c1ccc2nc(-c3cccc(Nc4ccc(-c5ccccc5)nn4)c3)[nH]c2c1` [Example 1, 6-phenyl-N-(3-(6-(trifluoromethyl)-1H-benzo[d]imidazol-2-yl)phenyl)pyridazin-3-amine], the inhibition at 0.05 µM is 30 to 60%, the inhibition at 0.1 µM is over 60% and the inhibition at 1 µM is over 60%.
As for `Fc1cc2nc(-c3cccc(Nc4ccc(-c5cccnn5)cc4)c3)[nH]c2cc1F` [Example 81, 3-(5,6-difluoro-1H-benzo[d]imidazol-2-yl)-N-(4-pyridazin-3-ylphenyl)aniline], the inhibition at 0.05 µM is over 60%.
As for `Cc1ccc2nc(-c3cccc(Nc4ccc(-c5cccnn5)cc4)c3)[nH]c2c1` [Example 105, 3-(6-methyl-1H-benzo[d]imidazol-2-yl)-N-(4-pyridazin-3-ylphenyl)aniline], the inhibition at 0.05 µM is over 60% and the inhibition at 1 µM is over 60%.
`Brc1cc2[nH]c(-c3cccc(Nc4ccc(-c5cccnn5)cc4)c3)nc2cn1` [Example 218, 3-(6-bromo-1H-imidazo[4,5-c]pyridin-2-yl)-N-(4-(pyridazin-3-yl)phenyl)aniline]: the inhibition at 0.05 µM lay in the range of 30 to 60%.
As to `FC(F)(F)c1cc2[nH]c(-c3cccc(Nc4ccc(-c5ccncn5)cn4)c3)nc2cn1` [Example 89, 5-pyrimidin-4-yl-N-[3-[6-(trifluoromethyl)-1H-imidazo[4,5-c]pyridin-2-yl]phenyl]pyridin-2-amine], the inhibition at 0.05 µM lay in the range of 30 to 60% and the inhibition at 1 µM was over 60%.
In the case of `Clc1cc2[nH]c(-c3cccc(Nc4ccc(-c5cccnn5)cc4)c3)nc2cn1` [Example 84, 3-(6-chloro-1H-imidazo[4,5-c]pyridin-2-yl)-N-(4-pyridazin-3-ylphenyl)aniline], the inhibition at 1 µM is over 60%.
For the compound `Fc1cccc(-c2ccc(Nc3cccc(-c4nc5ccc(C(F)(F)F)cc5[nH]4)c3)cc2)n1` [Example 252, N-(4-(6-fluoropyridin-2-yl)phenyl)-3-(6-(trifluoromethyl)-1H-benzo[d]imidazol-2-yl)aniline], the inhibition at 0.05 µM is over 60% and the inhibition at 1 µM was over 60%.
On to `FC(F)(F)c1ccc2nc(-c3cccc(Nc4ncc(-c5ccccn5)cn4)c3)[nH]c2c1` [Example 83, 5-(2-pyridyl)-N-[3-[6-(trifluoromethyl)-1H-benzo[d]imidazol-2-yl]phenyl]pyrimidin-2-amine], for which the inhibition at 0.05 µM is over 60%.
On to `FC(F)(F)c1ccc2nc(-c3cccc(Nc4ccc(-c5ccccn5)nn4)c3)[nH]c2c1` [Example 256, 6-(pyridin-2-yl)-N-(3-(6-(trifluoromethyl)-1H-benzo[d]imidazol-2-yl)phenyl)pyridazin-3-amine], for which the inhibition at 1 µM is over 60%.
`O=[N+]([O-])c1ccc2nc(-c3cccc(Nc4ccc(-c5cccnn5)cc4)c3)[nH]c2c1` [Example 227, 3-(6-nitro-1H-benzo[d]imidazol-2-yl)-N-(4-(pyridazin-3-yl)phenyl)aniline]: the inhibition at 0.05 µM is over 60% and the inhibition at 1 µM was over 60%.
Turning to `Fc1ccccc1-c1ccc(Nc2cccc(-c3nc4ccccc4[nH]3)c2)cc1` [Example 322, N-(3-(1H-benzo[d]imidazol-2-yl)phenyl)-2'-fluoro-[1,1'-biphenyl]-4-amine], the inhibition at 1 µM was over 60%.
For the compound `c1cc(Nc2ccc(-c3cscn3)cc2)cc(-c2nc3ccccc3[nH]2)c1` [Example 166, 3-(1H-benzo[d]imidazol-2-yl)-N-(4-thiazol-4-ylphenyl)aniline], the inhibition at 0.05 µM is over 60% and the inhibition at 1 µM is over 60%.
For `c1ccc(-c2ccc(Nc3cccc(-c4nc5ccccc5[nH]4)c3)nc2)nc1` [Example 59, N-[3-(1H-benzo[d]imidazol-2-yl)phenyl]-[2,3'-bipyridin]-6'-amine], the inhibition at 0.05 µM is over 60% and the inhibition at 0.1 µM was over 60%.
In the case of `Fc1cccc(-c2ccc(Nc3cccc(-c4nc5ccc(C(F)(F)F)cc5[nH]4)c3)nc2)c1` [Example 18, 5-(3-fluorophenyl)-N-(3-(6-(trifluoromethyl)-1H-benzo[d]imidazol-2-yl)phenyl)pyridin-2-amine], the inhibition at 0.05 µM is over 60%, the inhibition at 0.1 µM is over 60% and the inhibition at 1 µM is over 60%.
On to `Clc1cccc2nc(-c3cccc(Nc4ccc(-c5cccnn5)cc4)c3)[nH]c12` [Example 115, 3-(7-chloro-1H-benzo[d]imidazol-2-yl)-N-(4-pyridazin-3-ylphenyl)aniline], for which the inhibition at 1 µM is over 60%.
As to `c1cc(Nc2ccc(-c3cncnc3)cc2)cc(-c2nc3ccccc3[nH]2)c1` [Example 30, 3-(1H-benzo[d]imidazol-2-yl)-N-(4-(pyrimidin-5-yl)phenyl)aniline], the inhibition at 0.05 µM was in the range of 30 to 60% and the inhibition at 0.1 µM lay within 30 to 60%.
On to `c1cnc(-c2ccc(Nc3cccc(-c4nc5ccccc5[nH]4)c3)nc2)nc1` [Example 69, N-(3-(lH-benzo[d]imidazol-2-yl)phenyl)-5-(pyrimidin-2-yl)pyridin-2-amine], for which the inhibition at 0.1 µM lay in the range of 30 to 60%.
As for `FC(F)(F)c1cc2[nH]c(-c3cccc(Nc4ncc(-c5ccccn5)cn4)c3)nc2cn1` [Example 242, 5-(pyridin-2-yl)-N-(3-(6-(trifluoromethyl)-1H-imidazo[4,5-c]pyridin-2-yl)phenyl)pyrimidin-2-amine], the inhibition at 0.05 µM was over 60% and the inhibition at 1 µM is over 60%.
For the compound `Fc1cc2nc(-c3cccc(Nc4cnc(-c5ccccn5)cn4)c3)[nH]c2cc1F` [Example 298, N-(3-(5,6-difluoro-1H-benzo[d]imidazol-2-yl)phenyl)-5-(pyridin-2-yl)pyrazin-2-amine], the inhibition at 0.05 µM was in the range of 30 to 60% and the inhibition at 1 µM was over 60%.
